Test in all cases: colorimetric ATPase assay
Assay [1] concerns the target Complex of Sliding-clamp-loader large subunit [R175K] and Sliding-clamp-loader small subunit (Enterobacteria phage T4, UniProt P04526, R175K). As to conditions: pH 7.5; 25 °C. How it is done:
(§1) ATPase assay contained 10 mM Mg2+, 1uM 13/20 DNA, 500uM (r)NTP or (d)NTP, 500 nM gp45, and 500 nM gp44/62 in T4 buffer. ATPase activity was measured by monitoring the release of Pi using a malachite green assay (31) or via the hydrolysis of [gamma-32P]-ATP.

Assay [2] deals with Complex of Sliding-clamp-loader large subunit [R175L] and Sliding-clamp-loader small subunit (Enterobacteria phage T4, UniProt P04526, R175L). The settings on record: pH 7.5; 25 °C. How it is done:
as §1

Assay [3] has as its target T1, Sliding-clamp-loader large/small subunit (Enterobacteria phage T4, UniProt P04526+P04527).
T1 sequence (P04526 whole entry): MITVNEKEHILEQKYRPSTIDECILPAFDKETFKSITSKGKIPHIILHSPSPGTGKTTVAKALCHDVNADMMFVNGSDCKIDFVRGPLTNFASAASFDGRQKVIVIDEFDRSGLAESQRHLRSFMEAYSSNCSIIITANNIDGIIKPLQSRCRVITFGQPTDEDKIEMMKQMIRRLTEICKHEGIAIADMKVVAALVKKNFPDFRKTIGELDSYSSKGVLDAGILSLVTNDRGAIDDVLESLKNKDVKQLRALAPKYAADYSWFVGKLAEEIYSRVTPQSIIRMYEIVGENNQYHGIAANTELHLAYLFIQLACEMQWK
T1 sequence (P04527 whole entry): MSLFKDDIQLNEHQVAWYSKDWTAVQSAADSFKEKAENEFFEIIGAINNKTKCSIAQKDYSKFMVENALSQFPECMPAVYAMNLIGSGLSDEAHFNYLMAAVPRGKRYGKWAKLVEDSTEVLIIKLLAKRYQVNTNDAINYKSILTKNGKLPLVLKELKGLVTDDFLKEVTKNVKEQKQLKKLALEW
As to conditions: pH 7.5; 25 °C. How it is done: as §1

In assay [4] the target is DNA polymerase III subunit tau (Escherichia coli, UniProt P06710). As to conditions: pH 7.5; 37 °C.
Sequence of DNA polymerase III subunit tau (P06710 whole entry): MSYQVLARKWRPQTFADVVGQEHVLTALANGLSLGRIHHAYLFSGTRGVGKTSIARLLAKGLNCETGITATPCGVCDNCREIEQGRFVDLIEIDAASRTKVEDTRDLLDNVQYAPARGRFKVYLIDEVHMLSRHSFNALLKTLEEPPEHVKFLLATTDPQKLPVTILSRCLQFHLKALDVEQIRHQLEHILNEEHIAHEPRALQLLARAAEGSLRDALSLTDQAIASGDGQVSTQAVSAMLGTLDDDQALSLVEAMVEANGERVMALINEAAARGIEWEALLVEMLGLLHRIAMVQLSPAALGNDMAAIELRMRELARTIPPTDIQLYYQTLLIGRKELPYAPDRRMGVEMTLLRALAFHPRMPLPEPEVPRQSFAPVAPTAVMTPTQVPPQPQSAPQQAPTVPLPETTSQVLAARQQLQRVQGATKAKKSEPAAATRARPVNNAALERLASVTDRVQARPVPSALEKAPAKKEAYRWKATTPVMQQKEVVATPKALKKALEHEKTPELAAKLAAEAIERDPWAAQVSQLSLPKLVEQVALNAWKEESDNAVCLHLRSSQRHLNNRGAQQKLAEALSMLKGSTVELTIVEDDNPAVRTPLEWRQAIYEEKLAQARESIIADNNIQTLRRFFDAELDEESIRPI

Sequence of Complex of Sliding-clamp-loader large subunit [R175K] and Sliding-clamp-loader small subunit (P04526 as listed by the source R175K): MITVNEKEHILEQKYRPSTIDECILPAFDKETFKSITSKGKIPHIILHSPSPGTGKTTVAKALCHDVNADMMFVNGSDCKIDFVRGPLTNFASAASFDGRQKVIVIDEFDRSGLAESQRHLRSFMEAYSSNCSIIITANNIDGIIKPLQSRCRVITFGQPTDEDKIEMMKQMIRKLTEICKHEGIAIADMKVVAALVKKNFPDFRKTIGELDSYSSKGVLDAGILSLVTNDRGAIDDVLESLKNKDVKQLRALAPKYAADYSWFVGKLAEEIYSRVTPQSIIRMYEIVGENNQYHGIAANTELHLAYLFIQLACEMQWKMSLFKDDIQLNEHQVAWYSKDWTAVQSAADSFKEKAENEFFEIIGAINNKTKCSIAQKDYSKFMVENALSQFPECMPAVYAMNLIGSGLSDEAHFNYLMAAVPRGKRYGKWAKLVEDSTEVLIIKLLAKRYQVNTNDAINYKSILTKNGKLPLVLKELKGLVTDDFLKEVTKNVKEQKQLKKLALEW
Sequence of Complex of Sliding-clamp-loader large subunit [R175L] and Sliding-clamp-loader small subunit (P04526 as listed by the source R175L): as the sequence (P04526 as listed by the source R175K) above, with K175L counted along it

The term Ki denotes a measure of affinity in units of concentration, obtained from inhibition or displacement. Higher therefore signals lower affinity. Turning to `O=[N+]([O-])c1cccc2c1ccn2[C@H]1C[C@H](O)[C@@H](COP(=O)(O)OP(=O)(O)OP(=O)(O)O)O1` [4-nitro-indolyl-2'-deoxyriboside triphosphate], the inhibition constant Ki in assay [1] was found to be 30.2 µM; in assay [2], 41.6 µM; in assay [3], 34.2 µM; in assay [4], 11.1 µM.
For `Nc1ccc2c(ccn2[C@H]2C[C@H](O)[C@@H](COP(=O)(O)OP(=O)(O)OP(=O)(O)O)O2)c1` [5-amino-indolyl-2'-deoxyriboside triphosphate], the inhibition constant Ki is more than 200 µM in assay [3] and 45 µM in assay [4].
The corresponding values for `O=P(O)(O)OP(=O)(O)OP(=O)(O)OC[C@H]1O[C@@H](n2ccc3cc(C4=CCCCC4)ccc32)C[C@@H]1O` [5-cyclohexene-indolyl-2'-deoxyriboside triphosphate] are 10 µM and 11.8 µM.
The corresponding values for `O=P(O)(O)OP(=O)(O)OP(=O)(O)OC[C@H]1O[C@@H](n2ccc3cc(C4CCCCC4)ccc32)C[C@@H]1O` [5-cyclohexyl-indolyl-2'-deoxyriboside triphosphate] are 47.5 µM and 24 µM.
On to `CCc1ccc2c(ccn2[C@H]2C[C@H](O)[C@@H](COP(=O)(O)OP(=O)(O)OP(=O)(O)O)O2)c1` [5-ethyl-indolyl-2'-deoxyriboside triphosphate], for which the Ki in assay [1] was 25.2 µM; in assay [2], 11 µM; in assay [3], 81.5 µM; in assay [4], 9 µM.
For `C=Cc1ccc2c(ccn2[C@H]2C[C@H](O)[C@@H](COP(=O)(O)OP(=O)(O)OP(=O)(O)O)O2)c1` [5-ethylene-indolyl-2'-deoxyriboside triphosphate] the same measures were 26.2 µM, 34 µM, more than 200 µM and 30 µM.
For `O=P(O)(O)OP(=O)(O)OP(=O)(O)OC[C@H]1O[C@@H](n2ccc3cc(F)ccc32)C[C@@H]1O` [5-fluoro-indolyl-2'-deoxyriboside triphosphate], the figures for the inhibition constant Ki in assay [3] and in assay [4] were more than 200 µM and 34 µM, respectively.
As to `O=[N+]([O-])c1ccc2c(ccn2[C@H]2C[C@H](O)[C@@H](COP(=O)(O)OP(=O)(O)OP(=O)(O)O)O2)c1` [5-nitro-indolyl-2'-deoxyriboside triphosphate], affinity in assay [4] was put at a Ki of 21.7 µM.
For the molecule `O=P(O)(O)OP(=O)(O)OP(=O)(O)OC[C@H]1O[C@@H](n2ccc3cc(-c4ccccc4)ccc32)C[C@@H]1O` [5-phenyl-indolyl-2'-deoxyriboside triphosphate], the Ki came out at 42 µM in assay [3] and 7.5 µM in assay [4].
Regarding `O=[N+]([O-])c1ccc2ccn([C@H]3C[C@H](O)[C@@H](COP(=O)(O)OP(=O)(O)OP(=O)(O)O)O3)c2c1` [6-nitro-indolyl-2'-deoxyriboside triphosphate], the Ki in assay [1] worked out at 9.1 µM; in assay [2] it was 5 µM; in assay [3] it was 5.1 µM; in assay [4], 8.1 µM.
The corresponding values for `Nc1ncnc2c1ncn2C1OC(COP(=O)(O)OP(=O)(O)OP(O)(O)=S)[C@@H](O)[C@H]1O` (stereo partly specified) [ATP{gamma}S] are 14 µM, 33.2 µM, 28.9 µM and 13 µM.

These data come from BindingDB's records for doi:10.1021/cb900218c (Case Western Reserve University, 2010).
